Where only a bound is given, the exact number is not on record here.

DCN1-UBC12 interaction, sequence (Q96GG9 60-248 limits assumed): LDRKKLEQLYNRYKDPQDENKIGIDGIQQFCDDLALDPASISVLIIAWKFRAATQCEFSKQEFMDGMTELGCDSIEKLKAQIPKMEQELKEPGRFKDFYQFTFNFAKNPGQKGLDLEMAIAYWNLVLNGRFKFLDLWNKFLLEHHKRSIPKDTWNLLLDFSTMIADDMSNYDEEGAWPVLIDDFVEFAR

One assay addresses DCN1-UBC12 interaction (Homo sapiens (Human), UniProt Q96GG9). In words: biochemical. The conditions noted are these: Table 4, commercial compounds; read-out: TR-FRET IC50. It counts as binding.
By IC50 is commonly meant the concentration at which inhibition is half-maximal. For the compound `CCc1cccc(NC(=O)C2CCN(C(C)=O)CC2)c1` [C32], the IC50 was above 67.6 µM.
Turning to `COc1ccc(NC(=O)C2CCN(C(=O)c3cnn(-c4ccccc4)c3-n3cccc3)CC2)cc1` [C49], the IC50 was above 67.6 µM.
Turning to `COc1cc(C(=O)N2CCC(C(=O)Nc3ccc(Br)cc3)CC2)cc(OC)c1OC` [C24], the IC50 is above 67.6 µM.
On the same count and under the same terms, as for `COc1ccc(NC(=O)C2CCN(C(=O)c3ccccc3C)CC2)c(OC)c1` [C21], the figure is above 67.6 µM; as for `CCC1CN(C(=O)N2CCC(C(=O)Nc3cccc(OC)c3)CC2)c2ccccc2O1` (stereo not drawn) [C54], above 67.6 µM.
In the case of `COc1ccc(C(=O)N2CCC(C(=O)Nc3cccc(C(F)(F)F)c3)CC2)cc1` [C1, 1-(4-Methoxybenzoyl)-N-(3-(Trifluoromethyl)Phenyl)Piperidine-4-Carboxamide], the IC50 stood at 8.07 µM.
On to `O=C(Nc1cccc([N+](=O)[O-])c1)C1CCN(C(=O)c2cccc3ccccc23)CC1` [C64], for which the IC50 is above 67.6 µM.
Take `CCC1CN(C(=O)N2CCC(C(=O)Nc3cccc(Cl)c3)CC2)c2ccccc2O1` (stereo not drawn) [C55]: the half-maximal inhibitory concentration (IC50) is above 67.6 µM.

Staying with this assay, now noted: Table 6, commercial compounds; read-out: TR-FRET IC50.
With `C=CCNC(=O)c1cnn(-c2ncc(C)c(-c3cccs3)n2)c1C` [E59], the IC50 was above 67.6 µM.
Consider `CCOC(=O)N1CCN(C(=O)c2cnn(-c3ncc(C)c(-c4cccs4)n3)c2C)CC1` [E12], for which the IC50 was determined as 28.3 µM.
As for `CC(=O)N1CCN(C(=O)c2cnn(-c3ncc(C)c(-c4cccs4)n3)c2C2CC2)CC1` [E50], the IC50 was above 67.6 µM.
As to `CCN(CC)CCN(CC)C(=O)c1cnn(-c2nccc(-c3cccs3)n2)c1C1CC1` [E2], the half-maximal inhibitory concentration (IC50) turned out to be 4.53 µM.
Consider `CCN(CC)CCN(C)C(=O)c1cnn(-c2nccc(-c3cccs3)n2)c1C(C)C` [E15], for which the IC50 is 32.1 µM.
For `C=CCN(CC=C)C(=O)c1cnn(-c2ncc(C)c(-c3cccs3)n2)c1C` [E48], the IC50 is above 67.6 µM.
In the case of `CCN(CC)CCNC(=O)c1cnn(-c2nccc(-c3cccs3)n2)c1COC` [E31], the 50% inhibitory concentration (IC50) is above 67.6 µM.

The assay is the same for the next values; noted with them: Table 7, commercial compounds; read-out: TR-FRET IC50.
Turning to `Cc1nn(C)c2c1C(c1cccc(F)c1)C(NC(=O)c1ccc(Cl)cc1)C(=O)N2` (stereo not drawn) [F10], the IC50 is above 67.6 µM.

The assay is the same for the next values; noted with them: read-out: TR-FRET IC50.
In the case of `CCCC(C)N1CCC(N(Cc2ccccc2)C(=O)Nc2ccc(F)cc2)CC1` (stereo not drawn) [A269], the IC50 is above 67.2 µM.
On to `CCN1CCC(N(Cc2ccco2)C(=O)Nc2ccc(OC)cc2)CC1` [B79], for which the IC50 was above 67.6 µM.
`Cc1cccc(CC(=O)NC2CCN(Cc3ccccc3)CC2)c1` [B21]: the IC50 was below 0.0041 µM.
In the case of `CCCC(C)N1CCC(N(Cc2cccnc2)C(=O)Nc2ccc(Cl)c(Cl)c2)CC1` (stereo not drawn) [A16], the IC50 was found to be 0.0905 µM.
Still for that read-out and setting: for `CCN1CCC(N(Cc2ccco2)C(=O)Nc2ccc(C)c(Cl)c2)CC1` [B6] the value was 6.85 µM.
Consider `C=CC(=O)NCc1cccc(CN(C(=O)Nc2cccc(C(F)(F)F)c2)C2CCN(C(C)CCC)CC2)c1` (stereo not drawn) [drawing 845], for which the IC50 turned out to be 0.018 µM.
In the case of “1-(1-((1H-Imidazol-4-yl)Methyl)Piperidin-4-yl)-1-Benzyl-3-(3-(Trifluoromethyl)Phenyl)Urea [A184]”, the IC50 turned out to be 29 µM.
Regarding `C=CS(=O)(=O)NCc1cccc(CN(C(=O)Nc2cccc(C(F)(F)F)c2)C2CCN(C(C)CCC)CC2)c1` (stereo not drawn) [drawing 849], the IC50 is below 0.01 µM.
For `Cc1ccc2[nH]c(C3CCN(Cc4cccc(C(F)(F)F)c4)CC3)nc2c1` [B19], the IC50 is below 0.004 µM.
On to `O=C(Nc1cc(C(F)(F)F)ccc1Cl)NC1CCN(Cc2ccccc2)CC1` [B101], for which the IC50 is above 69.8 µM.
As to `CCOc1ccc(C(=O)N2CCCC(c3nc4ccccc4s3)C2)cc1` (stereo not drawn) [D25], the IC50 was above 67.6 µM.
Regarding `C#CCCCN1CCC(N(Cc2ccccc2NC(=O)/C=C/C)C(=O)Nc2cccc(C(F)(F)F)c2)CC1` [A195], the IC50 is above 100 µM.
As to `CCCC(C)N1CCC(N(Cc2ccccc2)C(=O)NCc2ccc(N)cc2)CC1` (stereo not drawn) [A233], the IC50 was above 39.4 µM.
Take `O=C(Nc1cccc(F)c1)NC1CCN(Cc2ccccc2)CC1` [B64]: the IC50 was above 67.6 µM.
`O=C(Nc1cc(F)cc(C(F)(F)F)c1)N(Cc1ccccc1)C1CCN(Cc2cncnc2)CC1` [A210]: the IC50 was above 21.7 µM.
As to `O=C(c1cccc(F)c1)N1CCC(c2nc3ccccc3s2)CC1` [D12], the half-inhibitory concentration (IC50) came to 31.4 µM.
`C=CC(=O)NCCN(C(=O)Nc1cccc(C(F)(F)F)c1)C1CCN(C(C)CCC)CC1` (stereo not drawn) [drawing 835]: the IC50 amounted to 33.8 µM.
On to `CCCC(C)N1CCC(N(Cc2ccccc2)C(=O)Nc2ccc3cn[nH]c3c2)CC1` (stereo not drawn) [A108], for which the IC50 was determined as 2.11 µM.
`CCCC(C)N1CCC(N(Cc2ccccc2)C(=O)Nc2ccccc2I)CC1` (stereo not drawn) [A285]: the IC50 is above 72.4 µM.
As for `CCCC(C)N1CCC(N(Cc2ccccc2)C(=O)Nc2ccc(OC)cc2OC)CC1` (stereo not drawn) [A196], the IC50 was above 11.8 µM.
On to `O=C(c1ccc(F)cc1F)N1CCC(c2nc3ccccc3s2)CC1` [D11], for which the IC50 was 30.6 µM.
Take `CCCC(C)N1CCC(N(Cc2ccccc2)C(=O)Nc2cccc(OCc3ccccc3)c2)CC1` (stereo not drawn) [A94]: the IC50 is 1.29 µM.
The same measure, in the same setting: for `C=CS(=O)(=O)NCCN(C(=O)Nc1cccc(C(F)(F)F)c1)C1CCN(C(C)CCC)CC1` (stereo not drawn) [drawing 839] the value was above 41 µM; for `CCCC(C)N1CCC(N(Cc2ccccc2)C(=O)Nc2ccc([N+](=O)[O-])c(C(F)(F)F)c2)CC1` (stereo not drawn) [A237], above 48.4 µM; for `C=CS(=O)(=O)NCCN(C(=O)Nc1cccc(C(F)(F)F)c1)C1CCN(C(C)CCC)CC1` (stereo not drawn) [A235], above 41.1 µM.
For `CCCC(C)N1CCC(N(Cc2ccccc2)C(=O)Nc2ccc(C)nc2Br)CC1` (stereo not drawn) [A240], the half-inhibitory concentration (IC50) was above 51.7 µM.
As to `CCCC(C)N1CCC(N(CCNC(=O)CCl)C(=O)Nc2cccc(C(F)(F)F)c2)CC1` (stereo not drawn) [A251], the 50% inhibitory concentration (IC50) is above 59.9 µM.
On to `Cc1cccc(CN2CCC(NC(=O)Nc3cccc(C(F)(F)F)c3)CC2)c1` [A155, 1-(1-(3-Methylbenzyl)Piperidin-4-yl)-3-(3-(Trifluoromethyl)Phenyl)Urea], for which the IC50 amounted to 6.77 µM.
Take `CC(=O)N1CCC(N(C(=O)Nc2cccc(C(F)(F)F)c2)C(C)C)CC1` [B65]: the IC50 was above 67.6 µM.
Same read-out and setting: as for `CCOc1ccc(NC(=O)N(Cc2ccco2)C2CCN(CC)CC2)cc1` [B80], the figure is above 67.6 µM; as for `CCN1CCC(NC(=O)Nc2cccc(C(F)(F)F)c2)CC1` [B15], 49.7 µM.
Take `CCCC(C)N1CCC(N(Cc2ccccc2)C(=O)Nc2ccc(Cl)cc2F)CC1` (stereo not drawn) [A91]: the IC50 was 1.19 µM.
For `O=C(Nc1cccc(C(F)(F)F)c1)N(Cc1ccccc1)C1CC2CCC(C1)N2Cc1ccccc1` (stereo not drawn) [A105], the IC50 is 1.87 µM.
Consider `CCN1CCC(NC(=O)Nc2cc(Cl)ccc2Cl)CC1` [B54], for which the IC50 is above 67.6 µM.
As to `CCCC(C)N1CCC(N(Cc2ccccc2)C(=O)Nc2ccc(F)c(S(F)(F)(F)(F)F)c2)CC1` (stereo not drawn) [A54], the IC50 worked out at 0.295 µM.
Regarding `C#CCCCN1CCC(N(Cc2ccccc2NC(=O)CC)C(=O)Nc2cccc(C(F)(F)F)c2)CC1` [A198], the IC50 was above 12.9 µM.
`CCCC(C)N1CCC(N(Cc2ccccc2)C(=O)Nc2ccc(O)cc2)CC1` (stereo not drawn) [A308]: the IC50 was above 98.6 µM.
For `C=CS(=O)(=O)NCCCN(C(=O)Nc1cccc(C(F)(F)F)c1)C1CCN(C(C)CCC)CC1` (stereo not drawn) [A220], the IC50 is above 24.5 µM.
On to `COc1ccc(CN(C(=O)Nc2ccc(Cl)cc2)C2CCN(C(C)=O)CC2)cc1` [B81], for which the IC50 was above 67.6 µM.
Turning to `CCCC(C)N1CCC(N(Cc2ccccc2)C(=O)Nc2c(C(C)C)cccc2C(C)C)CC1` (stereo not drawn) [A173], the IC50 stood at 13.1 µM.
With `C=CS(=O)(=O)NCc1cccc(CN(C(=O)Nc2cccc(C(F)(F)F)c2)C2CCN(C(C)CCC)CC2)c1` (stereo not drawn) [A1], the IC50 came to 0.0043 µM.
